Results reported in patent publication US7326732B2, “EP2 receptor agonists” (Pharmagene Laboratories Limited, priority 2004, dated 2008).

Tests used:
[1] = target: T1, human EP4 prostanoid receptors (Homo sapiens, UniProt P35408); experiment: Antagonist activity at EP4 prostanoid receptors (PGE2-stimulated cAMP in HEK-293 clones); type: cell-based; details: for Kb: HEK-293 stably transfected with human EP4, 30 min pre-incubation before PGE2, Gaddum-Schild, slope of unity, read-out: pA2 EP4 (converted); for activity (EP4 part): functional classification at EP4, second line of the activity cell
T1 construct: expressed in transfected cells; host or cells: HEK-293
T1 sequence (P35408 whole entry): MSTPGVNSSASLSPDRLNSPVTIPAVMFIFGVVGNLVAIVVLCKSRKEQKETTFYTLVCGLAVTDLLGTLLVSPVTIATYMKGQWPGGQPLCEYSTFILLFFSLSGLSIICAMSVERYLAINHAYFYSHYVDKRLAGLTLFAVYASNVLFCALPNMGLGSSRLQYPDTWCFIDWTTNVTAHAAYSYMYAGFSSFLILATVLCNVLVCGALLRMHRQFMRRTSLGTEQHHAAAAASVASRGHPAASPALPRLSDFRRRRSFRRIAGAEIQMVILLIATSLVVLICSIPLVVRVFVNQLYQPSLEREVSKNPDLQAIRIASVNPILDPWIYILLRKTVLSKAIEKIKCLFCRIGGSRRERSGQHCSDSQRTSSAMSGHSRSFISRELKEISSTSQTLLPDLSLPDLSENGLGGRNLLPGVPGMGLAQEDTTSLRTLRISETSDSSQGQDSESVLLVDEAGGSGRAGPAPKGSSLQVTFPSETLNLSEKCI
Protocol: Culture media was Minimal essential media (MEM), supplemented with 10% foetal bovine serum, 100 U/ml penicillin, […] streptomycin, 2.5 μg/ml fungizone, 2mM glutamine. Cells were cultured to confluency (3-4 days) prior to use. Culture media was removed, and confluent cells washed three times in MEM. […] Cells were then stimulated by the addition of 25 μl of PGE2 or agonists prepared in assay buffer. In antagonist studies, cells were pre-incubated with compounds for 30 minutes prior to PGE2-mediated stimulation Plates were incubated for 15 min at 37° C., before termination of the reaction by the addition of 25 μl 1M HCl. The plate was then frozen at -20° C. overnight before determination of cAMP concentration. Stimulated cAMP levels were determined by radioligand displacement binding. In brief, plates were thawed rapidly in a waterbath, and the samples neutralised by the addition of 25 μl 1M NaOH. 30 μl was transferred to Millipore plates pre-coated with 0.5% Polyethylenimine (PEI). Samples were diluted by addition of 90 μl cAMP determination buffer (50 mM Tris, 5 mM EDTA, pH 7.0). […] 15 μl of 2 nM (final concentration) [^3H] cAMP, and 15 μl of 3'5'-cAMP protein kinase (8 μg/well final concentration) prepared in cAMP determination buffer containing 0.1% BSA, were added to each well. Plates were incubated on ice for 2 hours, before bound and free radiolabel were separated by vacuum filtration harvesting using the Millipore vacuum manifold, using ice cold water as the termination buffer. The sealing mat was removed from the Millipore plates, and the filters allowed to dry overnight. 50 μl Microscint 0 (Packard Bioscience) was added to each well, and the plate counted using the Micro-Beta Trilux topcount ^3H program. cAMP accumulation was determined from the standard curve, and values calculated in pmoles cAMP/well. Antagonists affinities (pA2 values) were determined assuming a slope of unity and the […]-Schild equation, where pA2=log [concentration ratio-1]-log[antagonist].

[2] = target: T2, human EP3 receptor (Homo sapiens, UniProt P43115); experiment: Binding ability to human EP receptors ([3H]PGE2 displacement), EP3; details: membranes expressing human EP3; [3H]PGE2 2.5 nM; Cheng-Prusoff; read-out: pKi (M) EP3 (converted)
T2 construct: expressed in transfected cells
T2 sequence (P43115 1-390): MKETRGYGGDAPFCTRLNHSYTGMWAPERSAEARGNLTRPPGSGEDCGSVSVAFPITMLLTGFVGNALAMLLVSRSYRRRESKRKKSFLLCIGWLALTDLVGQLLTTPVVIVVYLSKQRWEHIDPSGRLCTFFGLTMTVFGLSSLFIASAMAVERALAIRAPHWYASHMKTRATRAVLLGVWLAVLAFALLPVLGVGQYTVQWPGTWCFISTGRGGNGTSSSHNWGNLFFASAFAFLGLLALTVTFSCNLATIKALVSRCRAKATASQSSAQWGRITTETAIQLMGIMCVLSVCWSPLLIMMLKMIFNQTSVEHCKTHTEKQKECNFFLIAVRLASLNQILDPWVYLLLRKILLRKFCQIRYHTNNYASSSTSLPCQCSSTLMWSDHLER
How it was run: (§1)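 Membranes from cells stably expressing human EP2, EP3 or EP4 incubated to equilibrium with [3H]PGE2 and compound at 0.1 to 10 000 nM. Non-specific binding defined with 10 uM PGE2; bound label separated by vacuum filtration and quantified by scintillation counting.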

[3] = target: T3, human EP2 receptor (Homo sapiens, UniProt P43116); experiment: Binding ability to human EP receptors ([3H]PGE2 displacement), EP2; details: membranes expressing human EP2; [3H]PGE2 3 nM; Cheng-Prusoff; read-out: pKi (M) EP2 (converted)
T3 construct: expressed in transfected cells
T3 sequence (P43116 whole entry): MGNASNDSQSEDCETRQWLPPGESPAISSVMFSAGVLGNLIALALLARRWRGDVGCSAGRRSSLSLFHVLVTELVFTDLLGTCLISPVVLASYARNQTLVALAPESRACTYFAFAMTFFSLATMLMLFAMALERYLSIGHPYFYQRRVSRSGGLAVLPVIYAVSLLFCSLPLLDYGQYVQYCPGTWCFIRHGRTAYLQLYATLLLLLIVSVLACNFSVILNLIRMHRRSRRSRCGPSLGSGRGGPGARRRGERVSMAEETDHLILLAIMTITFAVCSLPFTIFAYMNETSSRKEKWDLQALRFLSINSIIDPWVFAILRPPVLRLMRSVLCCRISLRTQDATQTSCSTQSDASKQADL
How it was run: as §1

[4] = target: T4, human EP2 prostanoid receptors (Homo sapiens, UniProt P43116); experiment: Agonist activity at recombinant human EP2 prostanoid receptors (cAMP in HEK-293 clones); type: cell-based; details: for EC50: HEK-293 stably transfected with human EP2, cAMP accumulation, read-out: pEC50 EP2 (converted); for activity (EP2 part): functional classification at EP2
T4 construct: expressed in transfected cells; host or cells: HEK-293
T4 sequence (P43116 whole entry): as above

[5] = target: T5, human EP4 receptor (Homo sapiens, UniProt P35408); experiment: Binding ability to human EP receptors ([3H]PGE2 displacement), EP4; details: membranes expressing human EP4; [3H]PGE2 1 nM; Cheng-Prusoff; read-out: pKi (M) EP4 (converted)
T5 construct: expressed in transfected cells
T5 sequence (P35408 whole entry): as the sequence (P35408 whole entry) above
How it was run: as §1

| Kb [1] | activity (EP4 part) [1] | Ki [2] | Ki [3] | EC50 [4] | activity (EP2 part) [4] | Ki [5] | Compound |
| --- | --- | --- | --- | --- | --- | --- | --- |
| < 1000 nM | EP4 Agonist | > 1e-05 M | < 1e-07 M | < 100 nM | EP2 Agonist/ | < 1e-07 M | O=C(O)COc1cccc(NC(=O)c2cccc(-c3cccc(Cl)c3)n2)c1 [Compound 138, (3-{[6-(3-Chloro-phenyl)-pyridine-2-carbonyl]-amino}-phenoxy)-acetic acid] |
| < 1000 nM |  | > 1e-05 M | < 1e-07 M | < 100 nM | EP2 Agonist | < 1e-06 M | O=C(O)/C=C/c1cccc(NC(=O)c2cc(-c3cc(Cl)cc(Cl)c3)ccc2F)c1 [Compound 144, 3-{3-[(3′,5′-Dichloro-4-fluoro-biphenyl-3-carbonyl)-amino]-phenyl}-acrylic acid] |
| < 1000 nM | EP4 Agonist | > 1e-05 M | < 1e-07 M | < 100 nM | EP2 Agonist/ | < 1e-07 M | O=C(O)/C=C/c1cccc(NC(=O)c2cccc(-c3ccccc3)n2)c1 [Compound 178, 3-{3-[(6-Phenyl-pyridine-2-carbonyl)-amino]-phenyl}-acrylic acid] |
